Blank lines part the entries; values can stand above or below the compound they belong to.
Tests used:
[1] = molecular target: T1, TRP-M8 receptor (Homo sapiens, UniProt Q7Z2W7); assay: TRP-M8 receptor assay; assay type: cell-based
T1 construct: expressed in transfected cells
Text: Pain was defined by Sir Charles Sherrington as “the psychic adjunct of an imperative protective reflex”. Psychic events such as cooling, irritation, itch, and pain cannot be expressed by animals (animals cannot say “ouch” or that “it itches”) so the sensory effects of chemicals must be indirectly inferred. Receptor assays, based on cells transfected with the gene for TRP-M8 or TRP-A1, may be used as a model of sensory processes. […] But, as noted below, these assays give no information on how long and for what quality of sensations is occurring on human subjects. The best information on the pharmacological properties of these chemicals must therefore be derived from human experiment.
The sensations are more cold than cool, and have the sting and harshness of high concentrations of menthol. […] CPS-112 was therefore a disappointment in spite of its high potency on the receptor assay.

[2] = tested on: skin of the upper lip (philtrum); assay: Cooling sensation bioassay, ointment applied to skin above the upper lip (philtrum) of test subjects; assay type: in vivo, human; settings: for qualitative aspects of sensation (coolness and not cold, duration at least three hours): topical, philtrum method; for duration of action: applied to the skin of test subjects
Text: A reliable place for topical application is on the upper lip, above the vermillion border of the lips, on the philtrum, lateral to the philtrum until the nasolabial folds, and on the lower nostrils. This part of the face is known to be densely innervated with cold receptors, second only to the surface of eyeball. Tingling, cool and cold sensations may be experienced and rated for intensity. This test is quite accurate for predicting the cooling activity of candidate N-arylshydroxyalkylidene-cCarboxamide drugs, but most importantly, it also measures the duration of drug action on the sensory receptors. The duration of action is not measured in a receptor assay and is difficult to quantify on the tongue because of the dynamic fluid conditions in the oral cavity and the presence of taste factors that affect thermosensation.
For bioassay of […] on the skin, CPS-195 was stirred and dissolved in warm liquid Aquaphor® ointment to yield ointment concentrations of 0.25, 0.5, 1, and 2% wt/vol. After cooling, 50 to 80 mg of the solid ointment was placed on the tip of a plastic stick and applied to the skin above the upper lip, on the philtrum, and lateral to the philtrum up to the nasolabial folds, of test subjects and the onset and duration of cooling sensations recorded. Each of the compounds produce cooling on the skin of the upper lip with duration of action of more than 1 hour.
The intensity of the subjective skin sensation is rated as 0, 1, 2 or 3 with 0 as no change, 1 as slight coolness, cold, or tingling, 2 as clear cut signal of coolness, cold, or tingling, and 3 as robust cooling or cold. The interval for recording sensations is at 5 minute intervals, until two successive zeroes are obtained. The results are averaged values of 4 to 6 separate trials in the same individual. The data were plotted using SigmaPlot (Systat Software, Point Richmond Calif.) and a smoothing function with a negative exponential was used for analysis and statistical fit of the results.
The onset of drug action was taken as the time to reach 2 units of coolness intensity, and offset of drug action was the time when coolness intensity drops below 1.5, after previously surpassing 2 units. The duration of cooling action was defined as the offset time minus the onset time, which in this case averaged 2 minutes. The quality of the sensation was also noted, such as refreshing coolness, cold, or if the sensation was accompanied by irritation (stinging or burning). The quality of the sensation was not rated for intensity.

[3] = tested on: oral cavity; assay: Cooling sensation after placement on the dorsal surface of the tongue; assay type: in vivo, human
Protocol: The onset of cooling was 3 to 5 minutes, but once the effect was established, the entire oral cavity and pharyngeal surfaces (oro-, laryngo- and naso-pharynx) felt cool.
CPS-195 was formulated as a 3% wt/wt tablet in Ludipress®, a rapidly disintegrating direct compression excipient made by BASF Corp. The tablet size was 60 mg so each unit contained 1.8 mg of CPS-195. […] For example, applied onto the mucous membranes of the oral cavity it can soothe the discomforts of pharyngitis/laryngitis, oral mucositis, oral ulcers, and idiopathic facial pain. In the pharynx and upper airways, CPS-195 may be used to reduce or to treat cough, asthma, and chronic obstructive pulmonary disease. On the skin, CPS-195 can be used to treat the discomfort of severe acne, eczema, diabetic ulcers, and the like.

[4] = 2 mg on the dorsal surface of the tongue

T1 sequence (Q7Z2W7 whole entry): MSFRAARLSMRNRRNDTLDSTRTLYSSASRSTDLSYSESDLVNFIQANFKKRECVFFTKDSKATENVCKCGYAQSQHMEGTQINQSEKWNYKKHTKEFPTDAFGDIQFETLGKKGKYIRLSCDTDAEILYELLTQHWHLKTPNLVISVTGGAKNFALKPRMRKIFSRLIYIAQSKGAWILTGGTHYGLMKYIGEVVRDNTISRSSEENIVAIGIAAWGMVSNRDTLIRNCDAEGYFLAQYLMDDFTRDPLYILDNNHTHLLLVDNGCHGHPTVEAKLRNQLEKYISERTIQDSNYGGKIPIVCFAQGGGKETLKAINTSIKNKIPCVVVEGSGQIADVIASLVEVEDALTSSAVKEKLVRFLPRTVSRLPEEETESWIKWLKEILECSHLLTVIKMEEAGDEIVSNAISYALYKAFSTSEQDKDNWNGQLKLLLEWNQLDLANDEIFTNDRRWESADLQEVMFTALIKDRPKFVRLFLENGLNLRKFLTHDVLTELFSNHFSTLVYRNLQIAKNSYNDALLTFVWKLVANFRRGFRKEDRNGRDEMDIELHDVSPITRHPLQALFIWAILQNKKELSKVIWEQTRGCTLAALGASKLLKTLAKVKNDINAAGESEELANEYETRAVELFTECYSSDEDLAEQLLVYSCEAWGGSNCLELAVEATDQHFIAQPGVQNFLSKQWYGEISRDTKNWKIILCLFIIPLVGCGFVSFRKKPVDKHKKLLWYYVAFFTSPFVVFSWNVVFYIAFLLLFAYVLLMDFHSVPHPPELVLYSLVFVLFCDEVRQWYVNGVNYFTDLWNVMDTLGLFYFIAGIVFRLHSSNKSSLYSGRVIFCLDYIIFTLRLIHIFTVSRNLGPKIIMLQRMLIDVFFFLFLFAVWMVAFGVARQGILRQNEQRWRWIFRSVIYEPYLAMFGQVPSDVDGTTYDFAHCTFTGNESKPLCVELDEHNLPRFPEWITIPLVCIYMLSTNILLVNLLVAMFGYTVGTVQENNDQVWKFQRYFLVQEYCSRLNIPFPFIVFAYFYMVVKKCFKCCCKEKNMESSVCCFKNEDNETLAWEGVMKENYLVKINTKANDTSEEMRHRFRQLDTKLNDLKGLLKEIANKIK

active concentrations on the TRP-M8 receptor assay [1]: sub-micromolar
SMILES: COc1ccc(NC(=O)[C@@H]2C[C@H](C)CC[C@H]2C(C)C)cc1 [WS-12, reference compound]
time at which action is dissipated ([2]; 2% preparation): one
time at which duration of action peaks ([2]; 2% preparation): 30 min
sensation elicited on the philtrum and its environs ([2]; applied at 1 to 2%): strong cold sensations
qualitative aspects of sensation (coolness and not cold, duration at least three hours) [2]: sensations of cold, but of brief duration

SMILES: CC1CCC(C(C)C)C(O)C1 (single isomer, unassigned; (-)) [(−)-menthol, reference compound]
duration of action [2]: less than one

SMILES: CC(C)[C@@H]1CC[C@@H](C)C[C@H]1C(=O)N(C)CC(O)c1cccc(O)c1 (stereo in doubt) [CPS-195, 2-isopropyl-5-methyl-cyclohexanecarboxylic acid (2′-hydroxy-2′-[3″-hydroxy-phenyl]-ethyl)-N-methyl-amide]
duration of cooling sensation within the oral cavity [3, 4]: over 4 hours
quality of cool/cold sensations [3, 4]: pleasant and not aversive
duration of action ([3]; single dose of 2 mg applied to the surface of the tongue or on to the philtrum): ~4 h
duration of action (coolness and cold on skin of the upper lip) ([2]; 0.25% wt/vol in Aquaphor ointment): 1.2 h
duration of action (coolness and cold on skin of the upper lip) ([2]; 0.5% wt/vol in Aquaphor ointment): 1.8 h
duration of action (coolness and cold on skin of the upper lip) ([2]; 1% wt/vol in Aquaphor ointment): 2.4 h
duration of action (coolness and cold on skin of the upper lip) ([2]; 2% wt/vol in Aquaphor ointment): 5.2 h
potency compared to CPS-179, CPS-190 and CPS-192 ([2]; skin of the upper lip): most potent

SMILES: CC(C)[C@@H]1CC[C@@H](C)C[C@H]1C(=O)Nc1ccc(S(=O)(=O)Nc2ncccn2)cc1 [CPS-125]
qualitative aspects of sensation (coolness and not cold, duration at least three hours) [2]: met

SMILES: CCOC(=O)CNC(=O)[C@@H]1C[C@H](C)CC[C@H]1C(C)C [WS-5, reference compound]
duration of action [2]: less than one
